Data as given in publication PMC10046369, “Low-Affinity/High-Selectivity Dopamine Transport Inhibition Sufficient to Rescue Cognitive Functions in the Aging Rat” (Biomolecules, 2023).

Key:
Assay in all cases: biochemical
Parameters in all cases: KINOMEscan competition binding panel, per cent of control
Details in all cases: read-out: %Ctrl @ 2800nM
[1] = biological target: T1, RSK3(Kin.Dom.2-C-terminal) (Homo sapiens, UniProt Q15349)
T1 construct: gene RPS6KA2; Kin.Dom.2-C-terminal
Method in brief: (§1)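 Competition binding panel (KINOMEscan) across 450 human kinases and disease-relevant mutants, run to the contractor's standard protocol. Values are % control: (test signal − positive control signal)/(negative control signal − positive control signal) × 100, with lower values indicating stronger binding.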

p38-beta = biological target: T2, p38-beta (Homo sapiens, UniProt Q15759)
T2 construct: gene MAPK11
Method in brief: as §1

PDGFRA = PDGFRA (Homo sapiens, UniProt P16234)
Method in brief: as §1

MINK = biological target: T3, MINK (Homo sapiens, UniProt Q8N4C8)
T3 construct: gene MINK1
Method in brief: as §1

IRAK4 = IRAK4 (Homo sapiens, UniProt Q9NWZ3)
Method in brief: as §1

EPHA2 = EPHA2 (Homo sapiens, UniProt P29317)
Method in brief: as §1

DCAMKL2 = biological target: T4, DCAMKL2 (Homo sapiens, UniProt Q8N568)
T4 construct: gene DCLK2
Method in brief: as §1

CDC2L2 = biological target: T5, CDC2L2 (Homo sapiens, UniProt Q9UQ88)
T5 construct: gene CDK11A
Method in brief: as §1

PLK3 = PLK3 (Homo sapiens, UniProt Q9H4B4)
Method in brief: as §1

INSR = INSR (Homo sapiens, UniProt P06213)
Method in brief: as §1

EGFR(S752-I759del) = EGFR(S752-I759del) (Homo sapiens, UniProt P00533, DEL752-759)
Method in brief: as §1

[2] = biological target: T6, ABL1(T315I)-phosphorylated (Homo sapiens, UniProt P00519, T315I)
T6 construct: phosphorylated
Method in brief: as §1

PAK6 = PAK6 (Homo sapiens, UniProt Q9NQU5)
Method in brief: as §1

RET(M918T) = RET(M918T) (Homo sapiens, UniProt P07949, M918T)
Method in brief: as §1

FLT1 = FLT1 (Homo sapiens, UniProt P17948)
Method in brief: as §1

MYLK2 = MYLK2 (Homo sapiens, UniProt Q9H1R3)
Method in brief: as §1

MAST1 = MAST1 (Homo sapiens, UniProt Q9Y2H9)
Method in brief: as §1

PIK3CA(E545A) = PIK3CA(E545A) (Homo sapiens, UniProt P42336, E545A)
Method in brief: as §1

S6K1 = biological target: T7, S6K1 (Homo sapiens, UniProt P23443)
T7 construct: gene RPS6KB1
Method in brief: as §1

CLK3 = CLK3 (Homo sapiens, UniProt P49761)
Method in brief: as §1

MKNK1 = MKNK1 (Homo sapiens, UniProt Q9BUB5)
Method in brief: as §1

PAK2 = PAK2 (Homo sapiens, UniProt Q13177)
Method in brief: as §1

FLT3(D835H) = FLT3(D835H) (Homo sapiens, UniProt P36888, D835H)
Method in brief: as §1

SGK3 = SGK3 (Homo sapiens, UniProt Q96BR1)
Method in brief: as §1

ACVR2A = ACVR2A (Homo sapiens, UniProt P27037)
Method in brief: as §1

CAMK1G = CAMK1G (Homo sapiens, UniProt Q96NX5)
Method in brief: as §1

MAST1, sequence (Q9Y2H9 whole entry): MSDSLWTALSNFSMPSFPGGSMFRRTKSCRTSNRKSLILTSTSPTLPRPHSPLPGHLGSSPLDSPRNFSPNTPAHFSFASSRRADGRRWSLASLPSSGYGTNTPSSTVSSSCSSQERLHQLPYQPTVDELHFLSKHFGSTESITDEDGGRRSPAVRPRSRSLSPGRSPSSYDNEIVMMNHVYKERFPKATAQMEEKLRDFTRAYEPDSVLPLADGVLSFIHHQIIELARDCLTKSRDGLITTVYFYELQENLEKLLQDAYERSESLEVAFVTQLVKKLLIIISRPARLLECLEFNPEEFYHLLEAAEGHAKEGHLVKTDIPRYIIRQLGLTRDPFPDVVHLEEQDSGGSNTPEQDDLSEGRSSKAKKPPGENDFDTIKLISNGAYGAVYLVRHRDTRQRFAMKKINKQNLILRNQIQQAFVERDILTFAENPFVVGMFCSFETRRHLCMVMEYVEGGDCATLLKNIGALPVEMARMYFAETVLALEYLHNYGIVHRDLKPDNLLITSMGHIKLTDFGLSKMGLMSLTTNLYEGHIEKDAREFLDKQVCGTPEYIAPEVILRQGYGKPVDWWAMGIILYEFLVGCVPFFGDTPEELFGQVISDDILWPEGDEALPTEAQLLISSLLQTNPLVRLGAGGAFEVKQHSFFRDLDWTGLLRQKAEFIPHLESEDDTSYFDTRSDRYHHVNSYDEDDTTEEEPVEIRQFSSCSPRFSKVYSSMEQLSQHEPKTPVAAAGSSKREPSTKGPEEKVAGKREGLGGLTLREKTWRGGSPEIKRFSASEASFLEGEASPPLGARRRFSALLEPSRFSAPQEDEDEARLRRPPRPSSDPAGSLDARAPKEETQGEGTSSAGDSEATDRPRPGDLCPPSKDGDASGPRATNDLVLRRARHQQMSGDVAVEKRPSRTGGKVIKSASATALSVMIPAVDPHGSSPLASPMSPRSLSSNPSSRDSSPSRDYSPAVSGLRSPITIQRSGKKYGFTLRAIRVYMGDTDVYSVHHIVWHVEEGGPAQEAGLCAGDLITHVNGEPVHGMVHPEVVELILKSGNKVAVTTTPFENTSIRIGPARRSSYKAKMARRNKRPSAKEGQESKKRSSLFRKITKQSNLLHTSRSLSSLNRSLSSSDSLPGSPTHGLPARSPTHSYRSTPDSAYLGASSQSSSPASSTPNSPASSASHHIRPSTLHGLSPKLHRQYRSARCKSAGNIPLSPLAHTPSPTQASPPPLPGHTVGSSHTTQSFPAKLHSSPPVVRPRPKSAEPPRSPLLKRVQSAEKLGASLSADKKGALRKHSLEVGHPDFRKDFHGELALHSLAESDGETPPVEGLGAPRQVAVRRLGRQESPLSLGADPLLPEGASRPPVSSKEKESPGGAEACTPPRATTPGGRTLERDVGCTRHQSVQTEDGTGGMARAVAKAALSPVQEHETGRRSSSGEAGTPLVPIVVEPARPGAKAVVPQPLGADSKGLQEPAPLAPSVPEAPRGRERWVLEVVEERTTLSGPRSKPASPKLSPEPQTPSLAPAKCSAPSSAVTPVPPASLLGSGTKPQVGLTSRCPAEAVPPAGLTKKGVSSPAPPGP
T3 sequence (Q8N4C8 whole entry): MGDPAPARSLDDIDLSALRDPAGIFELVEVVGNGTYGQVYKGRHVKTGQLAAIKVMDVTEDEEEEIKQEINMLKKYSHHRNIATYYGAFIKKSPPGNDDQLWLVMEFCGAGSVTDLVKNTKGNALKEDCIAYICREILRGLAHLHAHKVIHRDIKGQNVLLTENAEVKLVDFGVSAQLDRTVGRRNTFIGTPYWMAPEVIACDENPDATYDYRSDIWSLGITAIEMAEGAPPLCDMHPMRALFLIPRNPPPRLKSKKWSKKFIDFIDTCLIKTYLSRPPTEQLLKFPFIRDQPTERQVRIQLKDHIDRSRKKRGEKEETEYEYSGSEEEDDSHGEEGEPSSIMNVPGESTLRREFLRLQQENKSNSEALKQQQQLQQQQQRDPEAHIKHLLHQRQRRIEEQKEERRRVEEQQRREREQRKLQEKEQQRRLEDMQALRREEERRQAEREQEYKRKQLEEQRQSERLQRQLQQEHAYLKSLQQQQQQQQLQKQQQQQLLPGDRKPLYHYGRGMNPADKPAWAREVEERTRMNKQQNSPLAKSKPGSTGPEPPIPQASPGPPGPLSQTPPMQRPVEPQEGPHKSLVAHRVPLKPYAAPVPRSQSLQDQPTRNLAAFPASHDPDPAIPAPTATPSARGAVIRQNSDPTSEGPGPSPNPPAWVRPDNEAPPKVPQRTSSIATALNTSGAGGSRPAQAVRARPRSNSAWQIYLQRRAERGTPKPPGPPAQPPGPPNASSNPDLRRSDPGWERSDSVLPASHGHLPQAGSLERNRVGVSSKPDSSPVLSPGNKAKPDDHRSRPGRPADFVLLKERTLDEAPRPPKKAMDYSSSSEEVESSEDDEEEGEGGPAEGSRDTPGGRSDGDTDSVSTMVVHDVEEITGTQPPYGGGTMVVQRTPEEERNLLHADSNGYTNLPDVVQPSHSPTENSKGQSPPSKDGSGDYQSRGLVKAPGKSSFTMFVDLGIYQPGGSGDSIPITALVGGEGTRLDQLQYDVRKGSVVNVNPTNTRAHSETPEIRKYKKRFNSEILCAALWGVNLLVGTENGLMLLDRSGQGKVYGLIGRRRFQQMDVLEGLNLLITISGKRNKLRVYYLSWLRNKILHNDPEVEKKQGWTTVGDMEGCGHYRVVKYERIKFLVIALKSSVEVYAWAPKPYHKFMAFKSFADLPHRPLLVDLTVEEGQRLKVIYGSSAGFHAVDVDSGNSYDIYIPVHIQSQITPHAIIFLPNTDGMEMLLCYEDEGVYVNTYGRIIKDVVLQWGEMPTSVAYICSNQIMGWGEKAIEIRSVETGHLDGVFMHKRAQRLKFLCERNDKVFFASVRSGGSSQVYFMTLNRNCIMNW
FLT1, sequence (P17948 whole entry): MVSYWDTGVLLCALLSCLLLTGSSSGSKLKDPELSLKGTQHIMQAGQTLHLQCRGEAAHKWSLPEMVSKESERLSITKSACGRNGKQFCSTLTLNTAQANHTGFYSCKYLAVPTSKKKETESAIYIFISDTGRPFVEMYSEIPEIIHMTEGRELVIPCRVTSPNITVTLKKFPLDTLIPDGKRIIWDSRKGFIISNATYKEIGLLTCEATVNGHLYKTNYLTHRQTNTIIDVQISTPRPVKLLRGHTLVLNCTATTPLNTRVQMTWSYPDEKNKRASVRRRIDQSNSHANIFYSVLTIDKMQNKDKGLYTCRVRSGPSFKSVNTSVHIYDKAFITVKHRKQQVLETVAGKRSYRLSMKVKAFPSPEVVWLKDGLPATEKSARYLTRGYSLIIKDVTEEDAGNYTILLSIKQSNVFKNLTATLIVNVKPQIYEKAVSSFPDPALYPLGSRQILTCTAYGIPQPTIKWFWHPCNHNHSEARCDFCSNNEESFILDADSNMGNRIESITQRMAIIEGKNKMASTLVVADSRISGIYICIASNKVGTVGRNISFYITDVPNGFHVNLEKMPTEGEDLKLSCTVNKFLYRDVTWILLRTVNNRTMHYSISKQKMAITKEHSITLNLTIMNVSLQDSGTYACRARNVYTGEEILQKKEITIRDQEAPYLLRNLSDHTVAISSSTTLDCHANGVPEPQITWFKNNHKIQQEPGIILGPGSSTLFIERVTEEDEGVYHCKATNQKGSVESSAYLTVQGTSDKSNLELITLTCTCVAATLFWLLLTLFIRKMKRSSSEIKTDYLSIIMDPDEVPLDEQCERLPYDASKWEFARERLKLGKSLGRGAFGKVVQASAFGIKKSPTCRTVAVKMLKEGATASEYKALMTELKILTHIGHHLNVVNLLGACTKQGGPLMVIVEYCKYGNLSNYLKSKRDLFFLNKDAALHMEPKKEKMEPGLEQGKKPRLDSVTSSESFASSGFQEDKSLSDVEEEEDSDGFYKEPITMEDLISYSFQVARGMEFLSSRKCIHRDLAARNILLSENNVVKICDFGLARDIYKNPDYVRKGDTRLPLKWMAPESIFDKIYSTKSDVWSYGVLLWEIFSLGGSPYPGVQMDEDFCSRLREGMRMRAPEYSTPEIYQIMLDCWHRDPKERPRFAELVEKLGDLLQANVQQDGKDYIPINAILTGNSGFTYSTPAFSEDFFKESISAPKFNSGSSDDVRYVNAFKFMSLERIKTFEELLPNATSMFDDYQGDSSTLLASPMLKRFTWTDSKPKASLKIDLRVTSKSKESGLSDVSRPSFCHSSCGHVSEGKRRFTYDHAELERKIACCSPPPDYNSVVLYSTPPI
MYLK2, sequence (Q9H1R3 whole entry): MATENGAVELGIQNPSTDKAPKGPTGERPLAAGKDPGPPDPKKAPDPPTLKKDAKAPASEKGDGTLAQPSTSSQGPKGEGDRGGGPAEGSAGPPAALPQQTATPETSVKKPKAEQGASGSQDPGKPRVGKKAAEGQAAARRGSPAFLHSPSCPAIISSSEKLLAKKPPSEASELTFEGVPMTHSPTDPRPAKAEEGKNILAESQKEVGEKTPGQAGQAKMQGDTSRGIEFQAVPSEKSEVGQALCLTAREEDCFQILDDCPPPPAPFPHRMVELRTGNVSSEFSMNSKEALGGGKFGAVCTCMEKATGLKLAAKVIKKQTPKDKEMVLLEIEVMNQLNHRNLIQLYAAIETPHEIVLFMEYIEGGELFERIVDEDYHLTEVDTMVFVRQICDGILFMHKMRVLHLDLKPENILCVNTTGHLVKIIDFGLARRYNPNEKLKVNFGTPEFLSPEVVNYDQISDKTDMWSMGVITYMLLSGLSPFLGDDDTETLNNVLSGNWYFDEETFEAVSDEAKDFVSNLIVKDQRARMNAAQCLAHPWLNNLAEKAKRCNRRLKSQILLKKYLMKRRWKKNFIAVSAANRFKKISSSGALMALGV

[O-][S@@+](Cc1cncs1)C(c1ccccc1)c1ccccc1 [S-CE-123, (S)-5-((Benzhydrylsulfinyl)Methyl)Thiazole]
remaining binding at 2.8 µM [1]: 87% | remaining binding at 2.8 µM (p38-beta): 94% | remaining binding at 2.8 µM (PDGFRA): 98% | remaining binding at 2.8 µM (MINK): 87% | remaining binding at 2.8 µM (IRAK4): 94% | remaining binding at 2.8 µM (EPHA2): 73% | remaining binding at 2.8 µM (DCAMKL2): 97% | remaining binding at 2.8 µM (CDC2L2): 98% | remaining binding at 2.8 µM (PLK3): 95% | remaining binding at 2.8 µM (INSR): 100% | remaining binding at 2.8 µM (EGFR(S752-I759del)): 66% | remaining binding at 2.8 µM [2]: 98% | remaining binding at 2.8 µM (PAK6): 100% | remaining binding at 2.8 µM (RET(M918T)): 89% | remaining binding at 2.8 µM (FLT1): 100% | remaining binding at 2.8 µM (MYLK2): 99% | remaining binding at 2.8 µM (MAST1): 94% | remaining binding at 2.8 µM (PIK3CA(E545A)): 93% | remaining binding at 2.8 µM (S6K1): 90% | remaining binding at 2.8 µM (CLK3): 95% | remaining binding at 2.8 µM (MKNK1): 96% | remaining binding at 2.8 µM (PAK2): 77% | remaining binding at 2.8 µM (FLT3(D835H)): 58% | remaining binding at 2.8 µM (SGK3): 100% | remaining binding at 2.8 µM (ACVR2A): 100% | remaining binding at 2.8 µM (CAMK1G): 82%
